# Data taken from patent publication US20060167057A1, “Compounds for the treatment of CNS and amyloid associated diseases” (priority 2004, published 2006).
# Target: T1, L1 transport system (large neutral amino acid carrier, L1-system carrier) (Rattus norvegicus, UniProt Q63016)
# T1 construct: functionality of their endogenous transporters such as the L1-system carrier; endogenous in cells; host or cells: rat primary cerebrovascular (brain microcapillary) endothelial cells, RBEC
# Assay: Competitive binding assay to the brain L1 transport system (L-[U-14C]phenylalanine on rat primary cerebrovascular endothelial cells)
# Conditions: for Status of Binding: compounds of Example 4, 10^−6, 10^−5 and 10^−4, Δ versus phenylalanine
# Procedure: Compound samples in PBS (without Ca^+2, Mg^+2)-glucose 30 mM-HEPES 10 mM—DMSO 1% as prepared in Example 1 were thawed and left for at least 30 minutes at 20-23° C. before preparation of the following sub-dilutions for the competitive binding assay: • 200 μL of the stock solution were added to 800 μL PBS (without Ca^+2, Mg^+2)-Glucose-HEPES-1% DMSO (PBSD-1) [diluted 1:5 for a final 1:5 dilution] • 100 μL (1/5 dilution above) were added to 900 μL PBSD-1 [diluted 1:10 for a final 1:50 dilution] • 100 μL (1/50 dilution above) were added to 900 μL PBSD-1 [diluted 1:10 for a final 1:500 dilution]
# These sub-dilutions were used immediately or stored overnight at 4° C. before the competitive binding assay. A volume of 45 μL of each of the compound dilutions (1:5, 1:50, 1:500) in PBSD-1 was added to the appropriate wells in the dilution plate.
# Brains from sixty 24-day-old rats were dissected individually on a sterile lint moistened with ice cold Hanks' balanced salt solution (Gibco BRL, Grand Island, N.Y.) containing 10 mM HEPES (medium 1) supplemented with 0.1% BSA. Cerebellum, striatum, optic nerves, and brain stem (white matter) were removed. After a mid-sagittal section of the brain, the meninges and leptomeningeal debris were removed by rolling a sterile dry cotton swab on the cortices. (Ichikawa N, Naora K, Hirano H, Hashimoto M, Masumura S, and Iwamoto K (1996). Isolation and primary culture of rat cerebral microvascular endothelial cells for studying drug transport in vitro. J Pharmacol Toxicol Meth 36: 45-52.). Clean cortices were minced in pieces of ≈2 mm^3 in 15 mL of ice-cold medium 1-0.1% BSA. The preparation was divided into 4 sterile pre-weighed tubes and centrifuged at 330× g at 20-25° C. for 5 min. Tubes were weighed and pre-warmed (37° C.) and medium 1 with 0.5% BSA containing 0.3% collagenase and 10 μg/mL DNAse 1 (Roche, Laval, Quebec, Canada) were added to each tube (1 mL/g of tissue).
# The brain-collagenase mixture was vigorously agitated in a water bath at 37° C. for 90 min. Fifteen min before the end of the digestion, the tissue was homogenized using a 10-mL pipette until a creamy mixture was obtained (≈20 aspirations). Cells were washed by adding medium 1 with 0.1% BSA to the homogenate (26 mL/tube) and centrifuged at 100× g at 20-25° C. for 7 min. This washing step was repeated 3 more times, once for 5 min and twice for 3 min. Each pellet was re-suspended in 25 mL of a 15% dextran solution prepared in medium 1 with 0.1% BSA and centrifuged at 3200× g at 4° C. for 25 min to isolate vessels from neural tissue and dextran layers. Vascular pellets were re-suspended in 5 mL Ca^++—Mg^++-free-medium 1 with 0.1% BSA (medium 2) at 20-25° C. and transferred in a 50-mL tube. Remaining vessels were collected by rinsing the tubes and pooling the rinsing suspension. (Rupnick M A, Carey A, and Williams S K (1988). Phenotypic diversity in cultured cerebral microvascular endothelial cells in vitro. Cell Develop Biol 24: 435-444.)
# The vascular preparation was filtered and rinsed (20 mL of medium 2) through a sterile 355-μm mesh. The 355-μm filtrate was sequentially filtered twice (20 mL of medium 2) through sterile 112-μm meshes and rinsed (Stanimirovic D B, Wong J, Ball R, and Durkin J P (1995). Free radical-induced endothelial membrane dysfunction at the site of the blood-brain barrier: relationship between lipid peroxidation, Na,K-ATPase activity, and ^51Cr release. Neurochem Res 20:1417-1427.) and the latter filtrate was filtered and rinsed through a sterile 20-μm mesh. A final step of filtration and rinse was repeated through a double layer of 20-μm meshes. All 20-μm meshes, which retained the microcapillaries, were then transferred into a 50-mL tube containing 20 mL of a 0.1% collagenase/dispase (Roche) solution in medium 2 supplemented with 10 μg/mL DNAse 1 and 0.147 μg/mL tosyl-lysine-chloromethyl-ketone (Sigma Chemical Co., Oakville, Ontario, Canada) (medium 3).
# T1 sequence (Q63016 whole entry): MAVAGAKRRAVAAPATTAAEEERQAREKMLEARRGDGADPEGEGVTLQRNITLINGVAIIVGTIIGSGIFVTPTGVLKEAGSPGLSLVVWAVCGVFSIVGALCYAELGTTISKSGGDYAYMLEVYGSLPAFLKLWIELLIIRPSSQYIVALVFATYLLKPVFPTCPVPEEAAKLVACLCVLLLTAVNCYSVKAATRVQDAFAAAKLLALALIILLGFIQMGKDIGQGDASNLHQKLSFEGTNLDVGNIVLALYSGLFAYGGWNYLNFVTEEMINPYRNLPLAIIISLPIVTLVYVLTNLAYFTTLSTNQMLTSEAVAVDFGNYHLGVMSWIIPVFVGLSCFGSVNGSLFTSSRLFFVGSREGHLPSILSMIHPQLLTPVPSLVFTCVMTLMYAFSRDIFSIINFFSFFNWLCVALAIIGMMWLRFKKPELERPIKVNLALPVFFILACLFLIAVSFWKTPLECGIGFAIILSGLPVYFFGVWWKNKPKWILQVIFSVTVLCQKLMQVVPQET
# T1 sequence (Q794F9 whole entry partner): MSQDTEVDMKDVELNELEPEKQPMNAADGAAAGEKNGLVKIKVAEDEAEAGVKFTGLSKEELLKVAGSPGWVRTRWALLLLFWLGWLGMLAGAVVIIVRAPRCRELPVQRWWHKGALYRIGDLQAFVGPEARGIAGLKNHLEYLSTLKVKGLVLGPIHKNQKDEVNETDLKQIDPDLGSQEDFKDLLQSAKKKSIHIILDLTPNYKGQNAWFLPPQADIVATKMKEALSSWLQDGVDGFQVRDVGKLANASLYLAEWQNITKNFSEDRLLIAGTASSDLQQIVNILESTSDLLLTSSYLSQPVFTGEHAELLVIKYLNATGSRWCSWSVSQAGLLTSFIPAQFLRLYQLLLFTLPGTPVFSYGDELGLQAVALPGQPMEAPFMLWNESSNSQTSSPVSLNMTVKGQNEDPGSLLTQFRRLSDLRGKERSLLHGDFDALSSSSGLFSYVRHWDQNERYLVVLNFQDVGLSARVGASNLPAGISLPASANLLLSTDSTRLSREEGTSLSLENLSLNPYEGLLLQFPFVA
SMILES,Comparison with the Binding of Phenylalanine (10^−4 M),Comparison with the Binding of Phenylalanine (10^−5 M),Comparison with the Binding of Phenylalanine (10^−6 M),Status of Binding
N[C@@H](Cc1cccc(CS(=O)(=O)c2nc3ccccc3[nH]2)n1)C(=O)O [drawing 473],,,,"0 (0: Δ ≦ −50%, no binding or very low binding affinity)"
NC(Cc1cccc(CSc2nnc(-c3ccccc3)o2)c1)C(=O)O (stereo not drawn) [Compound 1],2 (10 < X < 20 Rank 2),3 (X > 20 Rank 3),2 (10 < X < 20 Rank 2),
NC(Cc1cccc(CSc2ccnc3cc(C(F)(F)F)ccc23)c1)C(=O)O (stereo not drawn) [Compound 70],0 (X < 0 Rank 0),1 (0 < X < 10 Rank 1),0 (X < 0 Rank 0),
NC(Cc1ccc(-c2ccc(CSc3nc(-c4ccccc4)c(-c4ccccc4)[nH]3)cc2)cc1)C(=O)O (stereo not drawn) [Compound 89],1 (0 < X < 10 Rank 1),1 (0 < X < 10 Rank 1),1 (0 < X < 10 Rank 1),
NC(Cc1cccc(CSc2ncc[nH]2)c1)C(=O)O (stereo not drawn) [Compound 5],3 (X > 20 Rank 3),3 (X > 20 Rank 3),3 (X > 20 Rank 3),
NC(Cc1cccc(CSc2nnnn2-c2ccc(O)cc2)c1)C(=O)O (stereo not drawn) [Compound 3],3 (X > 20 Rank 3),3 (X > 20 Rank 3),3 (X > 20 Rank 3),
NC(=O)C(N)Cc1cccc(CSc2nnnn2-c2ccccc2)c1 (stereo not drawn) [Compound 9],0 (X < 0 Rank 0),1 (0 < X < 10 Rank 1),0 (X < 0 Rank 0),
CCOC(=O)c1c[nH]c(SCc2ccc(-c3ccc(CC(N)C(=O)O)cc3)cc2)nc1=O (stereo not drawn) [Compound 87],2 (10 < X < 20 Rank 2),3 (X > 20 Rank 3),3 (X > 20 Rank 3),
NC(Cc1cccc(CSc2nnc(-c3ccccc3)[nH]2)c1)C(=O)O (stereo not drawn) [Compound 13],3 (X > 20 Rank 3),3 (X > 20 Rank 3),3 (X > 20 Rank 3),
NC(Cc1cccc(CSc2ncnc3[nH]ncc23)n1)C(=O)O (stereo not drawn) [Compound 33],3 (X > 20 Rank 3),3 (X > 20 Rank 3),3 (X > 20 Rank 3),
N[C@@H](Cc1cccc(C[S+]([O-])c2nnc(-c3ccccc3)[nH]2)c1)C(=O)O (stereo partly drawn) [drawing 482],,,,"1 (1: −10 > Δ > −50%, lower binding affinity than phenylalanine)"
N[C@@H](Cc1ccccc1)C(=O)NC(Cc1cccc(CSc2nnnn2-c2ccccc2)c1)C(=O)O (stereo partly drawn) [Compound 53],0 (X < 0 Rank 0),2 (10 < X < 20 Rank 2),2 (10 < X < 20 Rank 2),
N[C@@H](Cc1cccc(CSc2nnnn2-c2ccccc2)c1)C(=O)O [drawing 468],,,,"3 (3: Δ > 10%, significantly higher binding affinity than phenylalanine)"
CN(C)CCn1nnnc1SCc1cccc(CC(N)C(=O)O)n1 (stereo not drawn) [Compound 88],1 (0 < X < 10 Rank 1),1 (0 < X < 10 Rank 1),1 (0 < X < 10 Rank 1),
NC(Cc1cccc(CN2CCN(c3cccc(Cl)c3)CC2)n1)C(=O)O (stereo not drawn) [Compound 86],1 (0 < X < 10 Rank 1),2 (10 < X < 20 Rank 2),1 (0 < X < 10 Rank 1),

# Further lines, with some results ahead:
Comparison with the Binding of Phenylalanine (10^−4 M),Comparison with the Binding of Phenylalanine (10^−5 M),Comparison with the Binding of Phenylalanine (10^−6 M),SMILES,Status of Binding
0 (X < 0 Rank 0),0 (X < 0 Rank 0),3 (X > 20 Rank 3),Cc1ccnc(Sc2cccc(-c3cccc(CC(N)C(=O)O)c3)c2)n1 (stereo not drawn) [Compound 136],
0 (X < 0 Rank 0),0 (X < 0 Rank 0),1 (0 < X < 10 Rank 1),Cc1nc(SCc2cccc(CC(N)C(=O)O)n2)sc1CC(=O)O (stereo not drawn) [Compound 92],
1 (0 < X < 10 Rank 1),1 (0 < X < 10 Rank 1),0 (X < 0 Rank 0),COc1ccc2[nH]c(SCc3ccc(-c4ccc(CC(N)C(=O)O)cc4)cc3)nc2c1 (stereo not drawn) [Compound 91],
1 (0 < X < 10 Rank 1),0 (X < 0 Rank 0),0 (X < 0 Rank 0),NC(Cc1cccc(CSc2ncccn2)n1)C(=O)O (stereo not drawn) [Compound 154],
2 (10 < X < 20 Rank 2),3 (X > 20 Rank 3),2 (10 < X < 20 Rank 2),Cn1cnnc1SCc1ccc(-c2ccc(CC(N)C(=O)O)cc2)cc1 (stereo not drawn) [Compound 97],
0 (X < 0 Rank 0),0 (X < 0 Rank 0),1 (0 < X < 10 Rank 1),Cc1nc(SCc2ccc(-c3ccc(CC(N)C(=O)O)cc3)cc2)sc1CC(=O)O (stereo not drawn) [Compound 122],
0 (X < 0 Rank 0),2 (10 < X < 20 Rank 2),2 (10 < X < 20 Rank 2),NC(Cc1cccc(CSc2nnnn2CC(=O)O)n1)C(=O)O (stereo not drawn) [Compound 123],
0 (X < 0 Rank 0),0 (X < 0 Rank 0),1 (0 < X < 10 Rank 1),NC(Cc1ccc(-c2ccc(CSc3ccc4ccccc4n3)cc2)cc1)C(=O)O (stereo not drawn) [Compound 159],
0 (X < 0 Rank 0),1 (0 < X < 10 Rank 1),0 (X < 0 Rank 0),NC(Cc1cccc(CN2CCN(c3ccccn3)CC2)n1)C(=O)O (stereo not drawn) [Compound 98],
3 (X > 20 Rank 3),3 (X > 20 Rank 3),3 (X > 20 Rank 3),CN(C)CCn1nnnc1SCc1ccc(-c2ccc(CC(N)C(=O)O)cc2)cc1 (stereo not drawn) [Compound 118],
0 (X < 0 Rank 0),0 (X < 0 Rank 0),2 (10 < X < 20 Rank 2),NC(Cc1ccc(-c2ccc(CSc3nnnn3CC(=O)O)cc2)cc1)C(=O)O (stereo not drawn) [Compound 153],
0 (X < 0 Rank 0),0 (X < 0 Rank 0),1 (0 < X < 10 Rank 1),NC(Cc1cccc(-c2cccc(N3CCc4ccccc4C3)c2)c1)C(=O)O (stereo not drawn) [Compound 115],
0 (X < 0 Rank 0),0 (X < 0 Rank 0),1 (0 < X < 10 Rank 1),NC(Cc1ccc(-c2ccc(CN3CCN(c4ncccn4)CC3)cc2)cc1)C(=O)O (stereo not drawn) [Compound 99],
2 (10 < X < 20 Rank 2),2 (10 < X < 20 Rank 2),2 (10 < X < 20 Rank 2),CN(C)CCn1nnnc1Sc1cccc(-c2cccc(CC(N)C(=O)O)c2)c1 (stereo not drawn) [Compound 103],
